Reference: PubChem BioAssay (NCI)
Several values for one entry are separate records, joined by “and”; a condition that tells them apart may be missing. Equal entries are not always repeated.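 A five-concentration, 48-hour dose response in 96-well plates underlies each endpoint, interpolated linearly between surrounding concentrations. GI50 marks 50% less growth. TGI is the concentration that stops growth completely.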

test system: UO-31 renal; assay: DTP human tumour cell line panel, 48 h

| SMILES | GI50 | TGI |
| --- | --- | --- |
| O=C(Nc1ccccc1)c1c(O)[nH]c(=S)[nH]c1=O | 65.4 µM | 65.9 µM and 174 µM |
| OC1CSSC1Cn1cnc2c(Nc3ccc(OCc4cccc(F)c4)c(Cl)c3)ncnc21 (stereo not given) | 1.45 µM | 6.55 µM |
| C=CCOc1ccc2c(C)cc(=O)oc2c1C | – | > 100 µM |
| Nc1c(C(=O)c2cccc(CCS(N)(=O)=O)c2)cnn1-c1ccc(F)cc1 | > 25 µM | > 25 µM |
| COc1cc2cc(OC)c3cc4c(cc3c2c(OC)c1OC)OCO4 | – | > 67.8 µM |
| CCCCCCCCCCCCCC(=O)OC(/C=C/C(C)C)C(O)C(O)C(OC)C(=O)NC1CCCCN(C)C1=O (stereo not given) | > 49 µM | 5.25 µM and > 49 µM |
| C[C@@H](Oc1cc(-n2cnc3ccc(CN4CCN(C)CC4)cc32)sc1C(N)=O)c1ccccc1C(F)(F)F | 1.67 µM and 0.776 µM | 16.6 µM and > 10 µM |
| CCN(CC)CCSc1c2ccccc2nc2cc(NCC(=O)Nc3ccccc3-c3ccccc3NC(=O)CNc3ccc4c(SCCN(CC)CC)c5ccccc5nc4c3)ccc12 | – | > 100 µM |
| O=C(CCNC12CC3CC(CC(C3)C1)C2)c1ccccc1 | – | 77.6 µM |
| COc1cccc(-c2cc(-c3cccc(NS(C)(=O)=O)c3)nc(N)c2C#N)c1O | 0.208 µM | > 52.7 µM |
| Cc1ccsc1C(=S)Nc1ccc(Cl)c(/C=N/OC(C)(C)C)c1 | – | > 100 µM |
| NC(=O)NO.O.O.O.O.O.O.O.O.O.O.O.[Ge].[Ge].[Ge].[Ge].[Ge].[O]=[Ge].[O]=[Ge].[O]=[Ge].[O]=[Ge].[O]=[Ge][OH] | – | > 100 µM |
| CN(C)C(=S)N=C(Nc1ccccc1)Nc1ccccc1 | – | > 100 µM |
| NC(N)=NS(=O)(=O)c1ccc(Nc2c3ccccc3nc3c(C(=O)NCCO)cccc23)cc1 | 18 µM | – |
| COc1cccc(C2c3cc4c(cc3OC(C)(N3CCCC3)C2C)OCO4)c1O (stereo not given) | – | 56.4 µM |
| O=C1NC(=NCCc2cccc(F)c2)S/C1=C\c1ccc2ncccc2c1 | 16.7 µM | > 25 µM |
| COc1cc(/C=N\NC(=O)CN2CCN(c3cc4c(cc3F)c(=O)c(C(=O)N/N=C/c3cc(OC)c(OC)c(OC)c3)cn4C3CC3)CC2)cc(OC)c1OC | > 100 µM | > 100 µM |
| O=C(O)CCC(NC(=O)c1ccc(Nc2nc3ccccc3nc2-c2cccs2)cc1)C(=O)O (stereo not given) | – | > 100 µM |

test system: NCI-H522 lung; assay: DTP human tumour cell line panel, 48 h

| SMILES | GI50 | TGI |
| --- | --- | --- |
| CN(C)c1ccc(/C=C\C2=[N+](C)c3ccccc3C2(C)C)cc1 | 0.703 µM | > 67.4 µM |
| COc1cc2c(c3oc4c(O)cccc4c(=O)c13)CC(C(C)(O)CO)O2 (stereo not given) | – | > 100 µM |
| CC(=O)OC1OC([C@@H]2c3cccc(O)c3C(=O)c3c(O)cc(C)cc32)C(O)C(O)C1O (stereo not given in full) | – | 0.382 µM |
| C[N+](C)(C)CC(=O)N/N=C(/CC(=O)CC(C1=C(O)c2ccccc2OC1)c1ccccc1)C(=O)Nc1cccc(Cl)c1 (stereo not given) | – | > 100 µM |
| O=C1/C(=C/c2ccc(O)c(O)c2)CCC/C1=C\c1ccc(O)c(O)c1 | – | 2.22 µM |
| COC(=O)/C=C1\S/C(=N\NC(=O)c2cc3ccc2/C=C\c2ccc(cc2)/C=C\3)N(c2ccccc2)C1=O | 4.89 µM | > 100 µM |
| COC([CH2][Hg][n]1cnc2c1c(=O)n(C)c(=O)n2C)CN1C(=O)c2ccccc2S1(=O)=O (stereo not given) | > 100 µM | > 100 µM |
| CN1CCCCC1CCN1c2ccccc2Sc2ccc(Cl)cc21 (stereo not given) | 2.31 µM | 7.37 µM |
| C=C(C)C(OC)C(O)CC1(C)CC(O)CC(C)(C2CCC3OC(C4(C)CCC(Br)C(C)(C)O4)CCC3(C)O2)O1 (stereo not given) | 18.2 µM | 55.8 µM |
| COc1cc2c(cc1OCCCCN1CCN(CC(=O)Nc3ccc(Cl)cc3C(=O)c3ccccc3Cl)CC1)N=CC1CCCN1C2=O (stereo not given) | 0.107 µM | 0.316 µM |
| O=C(CCc1nc(=S)[nH][nH]1)Nc1ccc(Cl)c(Cl)c1 | – | 72.1 µM |
| O=C(Nc1ccccc1)c1c(O)[nH]c(=S)[nH]c1=O | 83 µM | 58.3 µM and > 250 µM |
| OC1CSSC1Cn1cnc2c(Nc3ccc(OCc4cccc(F)c4)c(Cl)c3)ncnc21 (stereo not given) | 1.12 µM | 4.15 µM |
| C=CCOc1ccc2c(C)cc(=O)oc2c1C | – | 81.4 µM |
| Nc1c(C(=O)c2cccc(CCS(N)(=O)=O)c2)cnn1-c1ccc(F)cc1 | > 25 µM | > 25 µM |
| COc1cc2cc(OC)c3cc4c(cc3c2c(OC)c1OC)OCO4 | – | 56.6 µM |
| CCCCCCCCCCCCCC(=O)OC(/C=C/C(C)C)C(O)C(O)C(OC)C(=O)NC1CCCCN(C)C1=O (stereo not given) | – | 6.67 µM and > 49 µM |
| C[C@@H](Oc1cc(-n2cnc3ccc(CN4CCN(C)CC4)cc32)sc1C(N)=O)c1ccccc1C(F)(F)F | < 0.01 µM and 0.00531 µM | 0.0369 µM |
| CCN(CC)CCSc1c2ccccc2nc2cc(NCC(=O)Nc3ccccc3-c3ccccc3NC(=O)CNc3ccc4c(SCCN(CC)CC)c5ccccc5nc4c3)ccc12 | – | > 100 µM |
| O=C(CCNC12CC3CC(CC(C3)C1)C2)c1ccccc1 | – | 32 µM |
| COc1cccc(-c2cc(-c3cccc(NS(C)(=O)=O)c3)nc(N)c2C#N)c1O | 0.0163 µM | 0.075 µM |
| Cc1ccsc1C(=S)Nc1ccc(Cl)c(/C=N/OC(C)(C)C)c1 | – | > 100 µM |
| NC(=O)NO.O.O.O.O.O.O.O.O.O.O.O.[Ge].[Ge].[Ge].[Ge].[Ge].[O]=[Ge].[O]=[Ge].[O]=[Ge].[O]=[Ge].[O]=[Ge][OH] | – | > 100 µM |
| CN(C)C(=S)N=C(Nc1ccccc1)Nc1ccccc1 | – | > 100 µM |
| NC(N)=NS(=O)(=O)c1ccc(Nc2c3ccccc3nc3c(C(=O)NCCO)cccc23)cc1 | 16.6 µM | – |
| COc1cccc(C2c3cc4c(cc3OC(C)(N3CCCC3)C2C)OCO4)c1O (stereo not given) | – | 6.01 µM |
| O=C1NC(=NCCc2cccc(F)c2)S/C1=C\c1ccc2ncccc2c1 | 3.59 µM | 24.9 µM |
| COc1cc(/C=N\NC(=O)CN2CCN(c3cc4c(cc3F)c(=O)c(C(=O)N/N=C/c3cc(OC)c(OC)c(OC)c3)cn4C3CC3)CC2)cc(OC)c1OC | 0.249 µM | – |
| O=C(O)CCC(NC(=O)c1ccc(Nc2nc3ccccc3nc2-c2cccs2)cc1)C(=O)O (stereo not given) | – | > 100 µM |
| Cc1ccc(NC(=O)Nc2ccc(-c3cccnc3)cc2N2CCC(CO)CC2)cc1 | 1.66 µM | 5.12 µM |

test system: COLO 205 colon; assay: DTP human tumour cell line panel, 48 h

| SMILES | GI50 | TGI |
| --- | --- | --- |
| CN(C)c1ccc(/C=C\C2=[N+](C)c3ccccc3C2(C)C)cc1 | 0.354 µM | 1.65 µM |
| COc1cc2c(c3oc4c(O)cccc4c(=O)c13)CC(C(C)(O)CO)O2 (stereo not given) | – | > 100 µM |
| CC(=O)OC1OC([C@@H]2c3cccc(O)c3C(=O)c3c(O)cc(C)cc32)C(O)C(O)C1O (stereo not given in full) | 0.0429 µM | 2.68 µM |
| C[N+](C)(C)CC(=O)N/N=C(/CC(=O)CC(C1=C(O)c2ccccc2OC1)c1ccccc1)C(=O)Nc1cccc(Cl)c1 (stereo not given) | – | > 100 µM |
| O=C1/C(=C/c2ccc(O)c(O)c2)CCC/C1=C\c1ccc(O)c(O)c1 | – | > 64 µM |
| COC([CH2][Hg][n]1cnc2c1c(=O)n(C)c(=O)n2C)CN1C(=O)c2ccccc2S1(=O)=O (stereo not given) | > 100 µM | > 100 µM |
| CN1CCCCC1CCN1c2ccccc2Sc2ccc(Cl)cc21 (stereo not given) | 2.24 µM | 4.83 µM |
| C=C(C)C(OC)C(O)CC1(C)CC(O)CC(C)(C2CCC3OC(C4(C)CCC(Br)C(C)(C)O4)CCC3(C)O2)O1 (stereo not given) | 21.7 µM | 45.5 µM |
| COc1cc2c(cc1OCCCCN1CCN(CC(=O)Nc3ccc(Cl)cc3C(=O)c3ccccc3Cl)CC1)N=CC1CCCN1C2=O (stereo not given) | 0.175 µM | 0.335 µM |
| O=C(CCc1nc(=S)[nH][nH]1)Nc1ccc(Cl)c(Cl)c1 | – | > 100 µM |
| O=C(Nc1ccccc1)c1c(O)[nH]c(=S)[nH]c1=O | 39.3 µM | 64.1 µM and 105 µM |
| OC1CSSC1Cn1cnc2c(Nc3ccc(OCc4cccc(F)c4)c(Cl)c3)ncnc21 (stereo not given) | 2.83 µM | 8.69 µM |
| C=CCOc1ccc2c(C)cc(=O)oc2c1C | – | > 100 µM |
| Nc1c(C(=O)c2cccc(CCS(N)(=O)=O)c2)cnn1-c1ccc(F)cc1 | > 25 µM | > 25 µM |
| COc1cc2cc(OC)c3cc4c(cc3c2c(OC)c1OC)OCO4 | – | 44.4 µM |
| C[C@@H](Oc1cc(-n2cnc3ccc(CN4CCN(C)CC4)cc32)sc1C(N)=O)c1ccccc1C(F)(F)F | < 0.01 µM and 0.00424 µM | 0.699 µM |
| CCN(CC)CCSc1c2ccccc2nc2cc(NCC(=O)Nc3ccccc3-c3ccccc3NC(=O)CNc3ccc4c(SCCN(CC)CC)c5ccccc5nc4c3)ccc12 | – | > 55.3 µM |
| O=C(CCNC12CC3CC(CC(C3)C1)C2)c1ccccc1 | – | 34.9 µM |
| COc1cccc(-c2cc(-c3cccc(NS(C)(=O)=O)c3)nc(N)c2C#N)c1O | 0.128 µM | 1.91 µM |
| Cc1ccsc1C(=S)Nc1ccc(Cl)c(/C=N/OC(C)(C)C)c1 | – | 33.7 µM |
| NC(=O)NO.O.O.O.O.O.O.O.O.O.O.O.[Ge].[Ge].[Ge].[Ge].[Ge].[O]=[Ge].[O]=[Ge].[O]=[Ge].[O]=[Ge].[O]=[Ge][OH] | – | > 100 µM |
| CN(C)C(=S)N=C(Nc1ccccc1)Nc1ccccc1 | – | > 100 µM |
| NC(N)=NS(=O)(=O)c1ccc(Nc2c3ccccc3nc3c(C(=O)NCCO)cccc23)cc1 | 33.6 µM | – |
| COc1cccc(C2c3cc4c(cc3OC(C)(N3CCCC3)C2C)OCO4)c1O (stereo not given) | – | 10.4 µM |
| O=C1NC(=NCCc2cccc(F)c2)S/C1=C\c1ccc2ncccc2c1 | 1.43 µM | > 25 µM |
| COc1cc(/C=N\NC(=O)CN2CCN(c3cc4c(cc3F)c(=O)c(C(=O)N/N=C/c3cc(OC)c(OC)c(OC)c3)cn4C3CC3)CC2)cc(OC)c1OC | 0.45 µM | > 23.2 µM |
| Cc1ccc(NC(=O)Nc2ccc(-c3cccnc3)cc2N2CCC(CO)CC2)cc1 | 2.85 µM | 11.1 µM |
